What was measured:
[1] = test system: J553x(HIIIAxA188) null and transgenic corn; test: Fipronil/Pyraclostrobin study, initial trial: seed treatment, greenhouse growth, LemnaTec Scanalyzer imaging and harvest; type: in vivo, maize (Zea Mays L.); conditions: for Internode 1 length / Internode 2 length / Internode 3 length: seed treatment; for Fresh Weight: hand-collected
Procedure: (§1) J553x(HIIIAxA188) null and transgenic corn seeds of the T2 generation were treated with deionized water (Blank), 200 grams fipronil, 10 grams pyraclostrobin (F500), and 200 grams fipronil+10 grams pyraclostrobin; all formulation rates were grams/100 kg seed. Every formulation was applied to approximately 80 seeds. The formulation was pipetted into a 125 ml flask along the sides and bottom of the flask before adding the seeds and shaking the flask for 30 seconds. The coated seeds were then removed from the flask and placed in a plastic dish for drying.
(§2) Seventy-five 3-L pots per treatment (Blank, fipronil, pyraclostrobin, and fipronil+pyraclostrobin) were filled with potting media, labeled with colored stakes, and given a unique barcode. One seed per pot was planted at a depth of approximately 2 cm and covered with media. The media was lightly watered to imbibe the seeds, while allowing for ample oxygen exchange and so that the chemical coatings on the seeds remained intact. After planting, the pots were randomly distributed into three replicate blocks (1 bench=1 block), each with 25 plants of every treatment.
(§3) The plants were maintained in a greenhouse under optimal, well-watered conditions (80-90% field capacity) upon emergence. Supplemental nutrients were administered every third day during watering. The greenhouse temperature was maintained at 30° C., relative humidity at 75%, and light at 350 μmol m^−2s^−1, in a 15-hour day/9-hour night photoperiod. Supplemental lighting was provided using metal-halide lights. Once per week, the pots were randomly mixed within each block.
(§4) On day 21, the plants were imaged to collect the phenotypic data as described in the Imaging Procedures section. Leaves were sampled for transgene copy number on day 25 to identify the null and transgenic plants. On day 28, the plants were imaged and then harvested to collect fresh weight. The presence of the transgene was determined by the Taqman molecular analysis technique. Differences in the phenotypic data collected during the imaging process and in fresh weight among the four treatments and between the null and transgenic plants were assessed. The chemical by transgenic interactions were determined.
(§5) Imaging of the plants was facilitated using a LemnaTec Scanalyzer (Würselen, Germany), which includes a conveyor belt, an imaging station, a watering station, and computers for collecting, processing, and storing the image data. The cameras have a resolution of 1280×960 pixels and operate in 24-bit color.
(§6) The plants were manually transferred by block onto the conveyor system of the scanalyzer. Each plant was then moved through the imager automatically. At the imaging station, cameras collected the top view image and two side view images. The side view images were the transverse view and the view parallel with the plane of the plant.
(§7) As described in the formula (see Appendix A), the scanalyzer calculates plant volume as a number of pixels. To assign a physiologically meaningful value to the volume measurements, a separate experiment was conducted. The plants were scanned with the scanalyzer then harvested. The plant material was placed into a graduated cylinder filled to a known volume with water. The difference between the water plus plant material and water alone provided a known plant volume in mL.
(§8) Using the LemnaTec scanalyzer, we collected stem width; stalk volume; top, transverse, and parallel view plant areas; top, transverse, and parallel view green and yellow pixel counts; stem length; leaf angles and internode lengths through leaf 5; plant width and height; total leaf length; and total plant length.
(§9) Fresh Weight—A measurement of the fresh weight of the plant in grams. Hand-collected fresh weight is measured by harvesting the plant and weighing it on a balance. LemnaTec fresh weight is calculated by the scanalyzer based on plant volume and plant age. The zoom angles of the camera lenses are normalized using a calibration table. […]

[2] = test system: J553x(HIIIAxA188) null and transgenic corn; test: Fipronil/Pyraclostrobin study, second trial: seed treatment, greenhouse growth, LemnaTec Scanalyzer imaging; type: in vivo, maize (Zea Mays L.)
Procedure: as §1, §2, §3, §4, §5, §6, §7, §8, §9

[3] = Fipronil-Worldwide technical Bulletin, BASF; cited from earlier work
[4] = initial trial, relative to all other treatments

Structure (SMILES): N#Cc1nn(-c2c(Cl)cc(C(F)(F)F)cc2Cl)c(N)c1[S+]([O-])C(F)(F)F (stereo not drawn) [Fipronil, 5-amino-1-(2,6-dichloro-α,α,α-trifluoro-p-tolyl)-4-trifluoromethylsulfinylpyrazole-3-carbonitrile]
- # Fully Expanded Leaves ([1]; Avg): 3.0
- Leaf Angle 0 ([1]; Avg): 63.2 degrees
- Leaf Angle 1 ([1]; Avg): 58.9 degrees
- Plant Volume ([1]; Avg): 6.70E+06 pixels
- Stem Length ([1]; Avg): 108.8 cm
- stalk area from the transverse view, Pixel Count ([1]; Avg): 4910 pixels
- Internode 1 length ([1]; Avg of null and transgenic): 35.9 cm
- Internode 2 length ([1]; Avg of null and transgenic): 44.2 cm
- Internode 3 length ([1]; Avg of null and transgenic): 40.0 cm
- # Fully Expanded Leaves ([1]; Null plants): 3.1
- Leaf Angle 0 ([1]; Null plants): 57.5 degrees
- Leaf Angle 1 ([1]; Null plants): 63.6 degrees
- Plant Volume ([1]; Null plants): 6.53E+06 pixels
- Stem Length ([1]; Null plants): 110.4 cm
- stalk area from the transverse view, Pixel Count ([1]; Null plants): 5081 pixels
- Internode 1 length ([1]; Null plants): 35.3 cm
- Internode 2 length ([1]; Null plants): 45.9 cm
- Internode 3 length ([1]; Null plants): 42.4 cm
- Internode 1 length ([1]; Trans (transgenic) plants): 36.6 cm
- Internode 2 length ([1]; Trans (transgenic) plants): 42.5 cm
- Internode 3 length ([1]; Trans (transgenic) plants): 37.7 cm
- # Fully Expanded Leaves ([1]; Trans plants): 3.0
- Leaf Angle 0 ([1]; Trans plants): 68.7 degrees
- Leaf Angle 1 ([1]; Trans plants): 54.4 degrees
- Plant Volume ([1]; Trans plants): 6.86E+06 pixels
- Stem Length ([1]; Trans plants): 107.1 cm
- stalk area from the transverse view, Pixel Count ([1]; Trans plants): 4744 pixels
- Fresh Weight ([1]; Avg): 162.8 grams
- Fresh Weight ([1]; Null plants): 160.9 grams
- Fresh Weight ([1]; Trans plants): 164.7 grams
- fresh mass (in words) ([1]; initial trial, in general): enhanced
- plant height (in words) ([1]; initial trial, in general): enhanced
- plant volume (in words) ([1]; initial trial, in general): enhanced
- plant width (in words) ([1]; initial trial, in general): enhanced
- greenness (in words) [1, 4]: enhanced
- internode length (in words) [1, 4]: enhanced
- leaf angle (in words) [1, 4]: enhanced
- plant area (in words) [1, 4]: enhanced
- Dark Green Count ([1]; parallel view, Avg): 16389.5 pixels
- Medium Green Count ([1]; parallel view, Avg): 5662.4 pixels
- Plant Area ([1]; parallel view, Avg): 23760.8 pixels
- Yellow Count ([1]; parallel view, Avg): 1708.9 pixels
- Dark Green Count ([1]; parallel view, Null plants): 15955.0 pixels
- Medium Green Count ([1]; parallel view, Null plants): 5470.9 pixels
- Plant Area ([1]; parallel view, Null plants): 23035.0 pixels
- Yellow Count ([1]; parallel view, Null plants): 1609.1 pixels
- Dark Green Count ([1]; parallel view, Trans plants): 16812.3 pixels
- Medium Green Count ([1]; parallel view, Trans plants): 5848.7 pixels
- Plant Area ([1]; parallel view, Trans plants): 24467.0 pixels
- Yellow Count ([1]; parallel view, Trans plants): 1806.0 pixels
- Medium Green Count ([1]; top view, Avg): 17465 pixels
- Medium Green Count ([1]; top view, Null plants): 17038 pixels
- Medium Green Count ([1]; top view, Trans plants): 17881 pixels
- Medium Green Count ([1]; transverse view, Avg): 9089.0 pixels
- Yellow Count ([1]; transverse view, Avg): 3363.6 pixels
- Medium Green Count ([1]; transverse view, Null plants): 9132.8 pixels
- Yellow Count ([1]; transverse view, Null plants): 3268.7 pixels
- Medium Green Count ([1]; transverse view, Trans plants): 9046.4 pixels
- Yellow Count ([1]; transverse view, Trans plants): 3455.9 pixels
- Broad Side Drk Grn ([2]; Avg): 25067.65 pixels
- Broad Side Plnt Area ([2]; Avg): 35413.12 pixels
- Calc Fresh Weight ([2]; Avg): 100.77 g
- Narrow Side Drk Grn ([2]; Avg): 25969.34 pix
- Plant Volume ([2]; Avg): 9.19 M pixels
- Top Drk Grn ([2]; Avg): 57132.20 pixels
- Broad Side Drk Grn ([2]; Null plants): 26176.97 pixels
- Broad Side Plnt Area ([2]; Null plants): 36398.18 pixels
- Calc Fresh Weight ([2]; Null plants): 99.88 g
- Narrow Side Drk Grn ([2]; Null plants): 24703.55 pix
- Plant Volume ([2]; Null plants): 8.89 M pixels
- Top Drk Grn ([2]; Null plants): 56608.71 pixels
- Broad Side Drk Grn ([2]; Trans plants): 23958.33 pixels
- Broad Side Plnt Area ([2]; Trans plants): 34428.06 pixels
- Calc Fresh Weight ([2]; Trans plants): 101.65 g
- Narrow Side Drk Grn ([2]; Trans plants): 27235.14 pix
- Plant Volume ([2]; Trans plants): 9.50 M pixels
- Top Drk Grn ([2]; Trans plants): 57655.69 pixels
- reported plant performance effects [3]: enhance overall root system and root hair development, increase tiller number and productivity, increase photosynthetic capacity (plant greenness), increase leaf area and plant height, stimulate early flowering and grain maturation leading to significant increases in yield

Reference: US20100093715A1, “Plant productivity enhancement by combining chemical agents with transgenic modifications” (BASF SE, priority 2007, published 2010)
